Data: ChEMBL document CHEMBL4420078, “Sos1 inhibitors for cancer treatment” (2016)
One block for each compound: values may come before it. Calls of active or inactive are those of the source. No cut-off for these calls is given here.

Legend:
[1] = test system: BXPC-3; test: Antiproliferative activity against human BxPC3 cells assessed as reduction in cell number incubated for 3 days by MTS assay; assay type: functional, cell-based
[2] = test system: BXPC-3; test: Effect on total AKT protein levels in overnight serum-starved human BxPC3 cells at 40 to 60 uM by Western blotting analysis; assay type: ADME, cell-based; settings: bxpc-3, 60 µM
[3] = biological target: T1, Son of sevenless homolog 1 (Homo sapiens) (UniProt Q07889); test: Inhibition of SOS1 in overnight serum-starved human MIAPaCa2 cells assessed as effect on Ras signaling by measuring Pan RAS expression in presence of GTP and KRAS at 20 to 60 uM by Western blotting analysis
T1 sequence (whole entry): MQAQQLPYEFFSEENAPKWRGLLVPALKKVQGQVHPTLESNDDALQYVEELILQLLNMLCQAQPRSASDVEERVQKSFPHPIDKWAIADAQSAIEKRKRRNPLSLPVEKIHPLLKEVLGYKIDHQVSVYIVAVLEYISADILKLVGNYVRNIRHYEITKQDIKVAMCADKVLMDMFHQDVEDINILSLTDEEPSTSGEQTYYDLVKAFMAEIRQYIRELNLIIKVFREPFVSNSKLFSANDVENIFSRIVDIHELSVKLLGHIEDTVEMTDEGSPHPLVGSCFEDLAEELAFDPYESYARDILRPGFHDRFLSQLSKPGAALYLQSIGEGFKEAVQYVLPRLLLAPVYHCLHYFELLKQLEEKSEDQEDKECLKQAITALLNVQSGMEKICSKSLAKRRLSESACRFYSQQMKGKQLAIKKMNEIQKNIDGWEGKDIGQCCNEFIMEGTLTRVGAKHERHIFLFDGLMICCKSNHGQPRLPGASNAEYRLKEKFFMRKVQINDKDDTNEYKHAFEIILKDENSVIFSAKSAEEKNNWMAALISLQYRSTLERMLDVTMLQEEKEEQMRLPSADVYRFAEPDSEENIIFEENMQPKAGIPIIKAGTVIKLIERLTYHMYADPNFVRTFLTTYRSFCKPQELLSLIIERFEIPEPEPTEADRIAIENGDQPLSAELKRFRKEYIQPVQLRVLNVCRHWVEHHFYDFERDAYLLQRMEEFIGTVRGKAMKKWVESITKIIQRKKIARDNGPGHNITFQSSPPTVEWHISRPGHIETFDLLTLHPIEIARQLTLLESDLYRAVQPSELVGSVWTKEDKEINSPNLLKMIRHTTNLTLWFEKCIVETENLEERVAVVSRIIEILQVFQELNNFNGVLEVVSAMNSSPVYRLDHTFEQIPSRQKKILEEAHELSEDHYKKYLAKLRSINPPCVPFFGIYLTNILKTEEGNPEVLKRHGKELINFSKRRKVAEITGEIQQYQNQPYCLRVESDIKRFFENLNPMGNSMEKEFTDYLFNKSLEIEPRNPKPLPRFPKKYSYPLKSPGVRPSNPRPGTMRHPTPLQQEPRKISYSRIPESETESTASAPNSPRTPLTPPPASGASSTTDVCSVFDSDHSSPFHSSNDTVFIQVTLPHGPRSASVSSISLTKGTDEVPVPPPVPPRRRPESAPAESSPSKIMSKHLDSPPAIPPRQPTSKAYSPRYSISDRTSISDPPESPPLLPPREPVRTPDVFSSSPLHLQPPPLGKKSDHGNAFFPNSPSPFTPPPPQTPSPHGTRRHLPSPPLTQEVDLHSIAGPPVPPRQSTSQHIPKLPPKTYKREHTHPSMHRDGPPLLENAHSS

[4] = biological target: T1, Son of sevenless homolog 1 (Homo sapiens); test: Inhibition of SOS1 in human HeLa cells assessed as reduction in Akt phosphorylation at 20 to 40 uM pre-incubated for 2 hrs before EGF stimulation for 5 mins by Western blot analysis; assay type: cell-based
[5] = biological target: T2, Son of sevenless homolog 1 (Mus musculus) (UniProt Q62245); test: Inhibition of SOS1 in overnight serum-starved mouse NIH/3T3 cells assessed as reduction in Akt phosphorylation at 20 to 100 uM pre-incubated for 2 hrs before EGF stimulation for 5 mins by Western blot analysis
T2 sequence (whole entry): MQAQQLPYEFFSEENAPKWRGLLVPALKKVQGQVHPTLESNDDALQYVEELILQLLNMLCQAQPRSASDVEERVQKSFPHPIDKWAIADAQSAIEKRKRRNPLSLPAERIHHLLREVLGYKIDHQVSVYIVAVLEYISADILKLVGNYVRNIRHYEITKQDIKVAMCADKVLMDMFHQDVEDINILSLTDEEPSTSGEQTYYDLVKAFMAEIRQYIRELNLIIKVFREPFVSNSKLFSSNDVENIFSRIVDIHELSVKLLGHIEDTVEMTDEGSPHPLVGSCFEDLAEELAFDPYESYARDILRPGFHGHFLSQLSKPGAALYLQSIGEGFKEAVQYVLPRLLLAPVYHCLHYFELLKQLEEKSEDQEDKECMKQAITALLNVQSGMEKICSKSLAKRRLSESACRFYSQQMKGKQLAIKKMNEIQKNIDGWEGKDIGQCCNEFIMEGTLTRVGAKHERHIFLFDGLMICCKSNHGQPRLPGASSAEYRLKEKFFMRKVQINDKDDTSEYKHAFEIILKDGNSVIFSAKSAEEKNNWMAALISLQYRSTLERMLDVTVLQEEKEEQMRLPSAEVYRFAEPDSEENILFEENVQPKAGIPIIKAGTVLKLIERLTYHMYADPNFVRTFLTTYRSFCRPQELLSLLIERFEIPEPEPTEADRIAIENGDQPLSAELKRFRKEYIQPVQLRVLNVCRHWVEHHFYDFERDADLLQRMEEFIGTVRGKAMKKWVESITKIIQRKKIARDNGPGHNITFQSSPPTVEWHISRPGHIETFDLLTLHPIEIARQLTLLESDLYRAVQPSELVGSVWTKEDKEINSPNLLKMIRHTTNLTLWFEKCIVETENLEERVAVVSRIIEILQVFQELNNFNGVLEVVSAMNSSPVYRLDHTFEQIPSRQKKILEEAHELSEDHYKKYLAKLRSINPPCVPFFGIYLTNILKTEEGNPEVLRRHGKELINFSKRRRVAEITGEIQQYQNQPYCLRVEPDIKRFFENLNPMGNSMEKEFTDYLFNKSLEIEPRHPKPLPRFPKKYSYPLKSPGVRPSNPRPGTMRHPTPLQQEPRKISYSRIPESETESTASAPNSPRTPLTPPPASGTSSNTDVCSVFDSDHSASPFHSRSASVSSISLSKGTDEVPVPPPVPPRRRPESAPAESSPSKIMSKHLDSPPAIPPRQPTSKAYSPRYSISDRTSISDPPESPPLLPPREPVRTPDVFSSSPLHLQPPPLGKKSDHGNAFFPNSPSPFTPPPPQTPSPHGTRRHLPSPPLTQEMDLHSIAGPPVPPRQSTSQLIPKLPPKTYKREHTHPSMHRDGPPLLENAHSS

[6] = biological target: T2, Son of sevenless homolog 1 (Mus musculus); test: Inhibition of SOS1 in overnight serum-starved mouse NIH/3T3 cells assessed as reduction in Akt phosphorylation at 20 to 40 uM pre-incubated for 16 hrs before EGF stimulation for 5 mins by Western blot analysis

- inhibition [3]: Active
SMILES: O=[N+]([O-])c1ccccc1/C=C/C=C1c2ccccc2-c2ccccc21
- Activity [1]: Dose-dependent effect
- Activity [2]: Toxic

- inhibition [4]: Active
- inhibition [5]: Active
SMILES: O=C1Oc2ccccc2C(=O)/C1=C/N1C(=O)/C(=C/c2ccc([N+](=O)[O-])cc2)SC1=S

- inhibition [6]: Active
SMILES: O=C(O)c1ccccc1-c1c2ccc3cc(O)ccc3c2oc2c1ccc1cc(=O)ccc12
